Results as given in US20250152559A1, “METHODS FOR TREATING MYC-AMPLIFIED CANCER” (The Governing Council of the University of Toronto, priority 2023, published 2025).

Assays:
Test in all cases: PrestoBlue cell viability, 72-hour treatment, limiting dilution
SU_MB002 = assay type: cell-based, human; settings: for potency on tumor cell viability: SU_MB002 tumor cells
Description: (§1) SU_MB002, NSC194, NSC197 and NSC201FT, MBT375 and MED411FHTC were maintained in Neurocult Complete (NCC) media (Stem Cell Technologies; catalogue #05751). D425 and D458 were maintained in Dulbecco's […] (DMEM) containing 10% fetal bovine serum (FBS). HD-MB03 were maintained in NCC containing 10% FBS. All cell lines were conditioned in NCC for a minimum of 48 hours before experimentation. SU_MB002 and HD-MB03 G3MB-MYC PDOX were obtained from collaborators as kind gifts and are frequently passaged in vivo. SU_MB002, a treatment-refractory group 3 MB acquired at autopsy was received from Dr. Yoon-Jae Cho. Dr. Till Milde provided HD-MB03, a treatment-naïve group 3 MBs. ICB1299 group 4 MB cells were obtained as a gift from Silvia Marino's laboratory^62. MBT375 was established in-house from a surgical specimen of group 4 MB, which was engrafted in the cerebellum of mice for serial propagation. Nanostring genotyping was used to confirm group 4 medulloblastoma identity. MED411FHTC PDOX were procured from Dr. Olson's brain tumor research lab. D425 and D458 were obtained from the ATCC. All cell lines were fingerprint verified by short tandem repeat (STR) profiling. NSC194, NSC197 and NSC201FT were derived in-house from donor fetal brain tissues^63.
(§2) For assessment of viability, cells were seeded into 96-well plates at a density of 1,000 cells per well. Viability was measured by adding PrestoBlue™ diluted 1:10 (ThermoFisher Scientific; Catalogue #A13261) followed by a 4-hour incubation. Relative fluorescence intensity was determined via background correction. To assess tumorsphere forming capacity, cells were seeded at a low density (200 cells per well) and incubated for 3-5 days. Tumorspheres were manually counted thereafter.

HD-MB03 = assay type: cell-based; settings: Homo sapiens; HD-MB03, G3MB-MYC; read-out: Brequinar IC50
Description: as §1, §2

MED411-FHTC = assay type: cell-based; settings: Homo sapiens, G3MB-MYC, read-out: Brequinar IC50
Description: as §1, §2

D458 = assay type: cell-based; settings: Homo sapiens; D458, G3MB-MYC; read-out: Brequinar IC50
Description: as §1, §2

D425 = assay type: cell-based; settings: Homo sapiens; D425, G3MB-MYC; read-out: Brequinar IC50
Description: as §1, §2

SMILES	potency on tumor cell viability (SU_MB002)	IC50 (HD-MB03) [nM]	IC50 (MED411-FHTC) [nM]	IC50 (D458) [nM]	IC50 (D425) [nM]	IC50 (SU_MB002; Homo sapiens, SU_MB002, G3MB-MYC, read-out: Brequinar IC50) [nM]	tumor cell proliferation and viability with uridine supplementation (SU_MB002; SU_MB002, media with uridine hydrochloride (100 μM))
COc1ccc([C@H]2c3[nH]c4ccc(Cl)cc4c3CCN2C(=O)Oc2ccc(Cl)cc2)cc1 [PTC299]	nanomolar range	–	–	–	–	–	–
Cc1c(-c2ccc(-c3ccccc3F)cc2)nc2ccc(F)cc2c1C(=O)O [Brequinar]	nanomolar range	54.4	137	110	122	302	rescues
